In ChEMBL document CHEMBL1201862, “PubChem BioAssay data set” (2004):
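48-hour exposure; five concentrations; linearly interpolated endpoints. Abbreviation: GI50, concentration required for 50% inhibition of growth.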 Active and inactive are the calls of the source. No stated cut-off is given here; in the data, active = GI50 up to about 1.1 µM and inactive = higher.

Columns and labels:
Assay in all cases: NCI tumour cell line growth inhibition, 48 h
CAKI-1 = system: CAKI-1
HCT-15 = system: HCT-15
SNB-19 = system: SNB-19
HCC 2998 = system: HCC 2998
UACC-257 = system: UACC-257
MOLT-4 = system: MOLT-4
NCI/ADR-RES = system: NCI/ADR-RES
HL-60 = system: HL-60
SK-MEL-2 = system: SK-MEL-2
UO-31 = system: UO-31
LOX IMVI = system: LOX IMVI
DMS-114 = system: DMS-114
RXF 393 = system: RXF 393
SK-OV-3 = system: SK-OV-3
SF-539 = system: SF-539
U-251 = system: U-251
DMS-273 = system: DMS-273
SW-620 = system: SW-620
NCI-H522 = system: NCI-H522
MCF7 = system: MCF7
HOP-62 = system: HOP-62
HOP-18 = system: HOP-18
OVCAR-4 = system: OVCAR-4
CCRF-CEM = system: CCRF-CEM
A549 = system: A549
OVCAR-8 = system: OVCAR-8
RPMI-8226 = system: RPMI-8226
SF-268 = system: SF-268
NCI-H23 = system: NCI-H23
HCT-116 = system: HCT-116
OVCAR-3 = system: OVCAR-3
SK-MEL-28 = system: SK-MEL-28
HT-29 = system: HT-29
SF-295 = system: SF-295
UACC-62 = system: UACC-62
KM12 = system: KM12
A498 = system: A498
IGROV-1 = system: IGROV-1
SNB-75 = system: SNB-75
SN12C = system: SN12C
XF498 = system: XF498
Malme-3M = system: Malme-3M
COLO 205 = system: COLO 205
K562 = system: K562
KM-20L2 = system: KM-20L2
DLD-1 = system: DLD-1
M19-MEL = system: M19-MEL
EKVX = system: EKVX
NCI-H460 = system: NCI-H460
HOP-92 = system: HOP-92
SK-MEL-5 = system: SK-MEL-5
OVCAR-5 = system: OVCAR-5
NCI-H226 = system: NCI-H226
SNB-78 = system: SNB-78
SR = system: SR
LXFL 529 = system: LXFL 529
ACHN = system: ACHN
786-0 = system: 786-0
M14 = system: M14
TK-10 = system: TK-10

## Oc1c(CNCCCN2CCCC2)cc(Cl)c2cccnc12
CAKI-1
  GI50: 3030 nM (inactive)
HCT-15
  GI50: 2090 nM
SNB-19
  GI50: 6460 nM (inactive)
HCC 2998
  GI50: 3100 nM (inactive)
UACC-257
  GI50: 11400 nM (inactive)
MOLT-4
  GI50: 2770 nM (inactive)
NCI/ADR-RES
  GI50: 1480 nM (inactive)
HL-60
  GI50: 364 nM (active)
SK-MEL-2
  GI50: 11100 nM (inactive)
UO-31
  GI50: 3760 nM (inactive)
LOX IMVI
  GI50: 3010 nM (inactive)
DMS-114
  GI50: 3050 nM (inactive)
RXF 393
  GI50: 11500 nM (inactive)
SK-OV-3
  GI50: 4130 nM (inactive)
SF-539
  GI50: 2870 nM (inactive)
U-251
  GI50: 4090 nM (inactive)
DMS-273
  GI50: 2830 nM (inactive)
SW-620
  GI50: 4010 nM (inactive)
NCI-H522
  GI50: 4220 nM (inactive)
MCF7
  GI50: 4560 nM (inactive)
HOP-62
  GI50: 2660 nM (inactive)
HOP-18
  GI50: 4950 nM (inactive)
OVCAR-4
  GI50: 3920 nM (inactive)
CCRF-CEM
  GI50: 2340 nM (inactive)
A549
  GI50: 3140 nM (inactive)
OVCAR-8
  GI50: 3240 nM (inactive)
RPMI-8226
  GI50: 2380 nM (inactive)
SF-268
  GI50: 3270 nM (inactive)
NCI-H23
  GI50: 11000 nM (inactive)
HCT-116
  GI50: 2610 nM (inactive)
OVCAR-3
  GI50: 2140 nM (inactive)
SK-MEL-28
  GI50: 11200 nM (inactive)
HT-29
  GI50: 5300 nM (inactive)
SF-295
  GI50: 2190 nM (inactive)
UACC-62
  GI50: 2210 nM (inactive)
KM12
  GI50: 4050 nM (inactive)
A498
  GI50: 15000 nM (inactive)
IGROV-1
  GI50: 6850 nM (inactive)
SNB-75
  GI50: 13000 nM (inactive)
SN12C
  GI50: 5640 nM (inactive)
XF498
  GI50: 2560 nM (inactive)
Malme-3M
  GI50: 5550 nM (inactive)
COLO 205
  GI50: 3790 nM (inactive)
K562
  GI50: 2370 nM (inactive)
KM-20L2
  GI50: 3780 nM (inactive)
DLD-1
  GI50: 3220 nM (inactive)
M19-MEL
  GI50: 2520 nM (inactive)
EKVX
  GI50: 1750 nM (inactive)
NCI-H460
  GI50: 2880 nM (inactive)
HOP-92
  GI50: 7000 nM (inactive)
SK-MEL-5
  GI50: 1360 nM (inactive)
OVCAR-5
  GI50: 2520 nM (inactive)
NCI-H226
  GI50: 3150 nM (inactive)
SNB-78
  GI50: 14200 nM (inactive)

## Cc1ccc2cc3cccc(C(=O)NCCN(C)C)c3nc2c1
CAKI-1
  GI50: 275 nM (active)
HCT-15
  GI50: 955 nM
SNB-19
  GI50: 925 nM (active)
HCC 2998
  GI50: 1490 nM (inactive)
UACC-257
  GI50: 946 nM (active)
MOLT-4
  GI50: 321 nM (active)
NCI/ADR-RES
  GI50: 771 nM (active)
HL-60
  GI50: 565 nM (active)
SK-MEL-2
  GI50: 1870 nM (inactive)
UO-31
  GI50: 839 nM (active)
LOX IMVI
  GI50: 818 nM (active)
DMS-114
  GI50: 929 nM (active)
RXF 393
  GI50: 1010 nM (active)
SK-OV-3
  GI50: 1570 nM (inactive)
SF-539
  GI50: 1380 nM (inactive)
U-251
  GI50: 1660 nM (inactive)
DMS-273
  GI50: 647 nM (active)
SW-620
  GI50: 514 nM (active)
MCF7
  GI50: 681 nM (active)
HOP-62
  GI50: 923 nM (active)
HOP-18
  GI50: 2230 nM (inactive)
OVCAR-4
  GI50: 998 nM (active)
CCRF-CEM
  GI50: 679 nM (active)
A549
  GI50: 644 nM (active)
OVCAR-8
  GI50: 631 nM (active)
RPMI-8226
  GI50: 807 nM (active)
SF-268
  GI50: 1080 nM (active)
NCI-H23
  GI50: 1250 nM (inactive)
HCT-116
  GI50: 459 nM (active)
OVCAR-3
  GI50: 1360 nM (inactive)
SK-MEL-28
  GI50: 1630 nM (inactive)
HT-29
  GI50: 449 nM (active)
SF-295
  GI50: 832 nM (active)
UACC-62
  GI50: 1370 nM (inactive)
KM12
  GI50: 1540 nM (inactive)
A498
  GI50: 419 nM (active)
IGROV-1
  GI50: 1420 nM (inactive)
SNB-75
  GI50: 1330 nM (inactive)
SN12C
  GI50: 893 nM (active)
XF498
  GI50: 977 nM (active)
Malme-3M
  GI50: 1060 nM (active)
COLO 205
  GI50: 483 nM (active)
K562
  GI50: 690 nM (active)
KM-20L2
  GI50: 733 nM (active)
DLD-1
  GI50: 935 nM (active)
M19-MEL
  GI50: 977 nM (active)
EKVX
  GI50: 1140 nM (inactive)
NCI-H460
  GI50: 315 nM (active)
HOP-92
  GI50: 376 nM (active)
SK-MEL-5
  GI50: 1320 nM (inactive)
OVCAR-5
  GI50: 1470 nM (inactive)
NCI-H226
  GI50: 927 nM (active)
SNB-78
  GI50: 1370 nM (inactive)

## C[C@@H]1[C@@H]2[C@@H](C=C3C4CCC5Cc6nc7c(nc6C[C@@]5(C)C4C[C@H](O)[C@]32CO)CC2CCC3C4=C[C@H]5O[C@@]6(OC(C)(CO)C[C@@H]6O)[C@H](C)[C@@]5(O)[C@]4(C)[C@@H](O)CC3[C@]2(C)C7)O[C@]12CCC(C)(C)O2 (some centres undefined)
CAKI-1
  GI50: 21 nM (active)
HCT-15
  GI50: 135 nM
SNB-19
  GI50: 111 nM (active)
HCC 2998
  GI50: 145 nM (active)
UACC-257
  GI50: 66.8 nM (active)
MOLT-4
  GI50: 5.05 nM (active)
HL-60
  GI50: 6.92 nM (active)
SK-MEL-2
  GI50: 18.9 nM (active)
UO-31
  GI50: 57.5 nM (active)
RXF 393
  GI50: 0.82 nM (active)
SK-OV-3
  GI50: 16.7 nM (active)
SF-539
  GI50: 0.764 nM (active)
U-251
  GI50: 5.3 nM (active)
DMS-273
  GI50: 0.826 nM (active)
SW-620
  GI50: 22.5 nM (active)
NCI-H522
  GI50: 579 nM (active)
MCF7
  GI50: 0.75 nM (active)
HOP-62
  GI50: 3.11 nM (active)
HOP-18
  GI50: 401 nM (active)
OVCAR-4
  GI50: 959 nM (active)
CCRF-CEM
  GI50: 11.7 nM (active)
A549
  GI50: 13.7 nM (active)
OVCAR-8
  GI50: 425 nM (active)
RPMI-8226
  GI50: 1.44 nM (active)
SF-268
  GI50: 20.8 nM (active)
SR
  GI50: 2.55 nM (active)
NCI-H23
  GI50: 32.8 nM (active)
HCT-116
  GI50: 30.6 nM (active)
OVCAR-3
  GI50: 388 nM (active)
SK-MEL-28
  GI50: 30.5 nM (active)
HT-29
  GI50: 62.5 nM (active)
SF-295
  GI50: 0.508 nM (active)
UACC-62
  GI50: 80.2 nM (active)
KM12
  GI50: 57 nM (active)
A498
  GI50: 8.83 nM (active)
IGROV-1
  GI50: 387 nM (active)
SNB-75
  GI50: 0.38 nM (active)
SN12C
  GI50: 904 nM (active)
XF498
  GI50: 5.07 nM (active)
LXFL 529
  GI50: 11.8 nM (active)
Malme-3M
  GI50: 101 nM (active)
ACHN
  GI50: 171 nM (active)
COLO 205
  GI50: 80.9 nM (active)
K562
  GI50: 16.4 nM (active)
KM-20L2
  GI50: 23.3 nM (active)
DLD-1
  GI50: 822 nM (active)
M19-MEL
  GI50: 966 nM (active)
EKVX
  GI50: 76.6 nM (active)
786-0
  GI50: 2.62 nM (active)
NCI-H460
  GI50: 10.1 nM (active)
HOP-92
  GI50: 8.15 nM (active)
SK-MEL-5
  GI50: 32.4 nM (active)
OVCAR-5
  GI50: 488 nM (active)
M14
  GI50: 18.2 nM (active)
TK-10
  GI50: 473 nM (active)
NCI-H226
  GI50: 22.5 nM (active)
SNB-78
  GI50: 4.86 nM (active)
